The text below walks through data of patent US20110091473A1, “NOVEL ANTIBODY THERAPIES” (GENMAB A/S, priority 2007, published 2011).

The test system of one assay is RAJI-CD20high cells. Kind of assay: Rituximab-mediated CDC of RAJI-CD20high cells, MTT assay. It is filed as cell-based, human. As to conditions: lovastatin concentration range 48 hours; 10% complement active serum. From the text:
Statins are competitive inhibitors of 3-hydroxy-3-methylglutaryl-coenzyme A reductase (HMG-CoAR). HMG-CoAR is a rate-limiting enzyme of the mevalonate pathway essential for the synthesis of isoprenoid compounds including cholesterol (McTaggart S J (2006) Isoprenylated proteins. Cell Mol Life Sci 63:255-267). By inhibiting HMG-CoAR, statins can lower the cholesterol blood level and extract cholesterol from the cell membrane. To determine the effect of statin-mediated cholesterol depletion on immunotherapy RAJI-CD20high cells were cultured with a concentration range of lovastatin or diluent for 48 hours.
Cell viability was measured in a MTT assay in which 3-(4,5-dimethylthiazol-2-yl)-2,5-diphenyltetrazolium bromide (MTT) solution (5 mg/ml, Roche, Diagnostics, Almere, The Netherlands) was added to each well (flat-bottom microtiter plates; Nunc, Rochester, N.Y.). The reaction was stopped after 4 hours of incubation at 37° C. by the addition of 100 μl of 20% SDS (Roche Diagnostics, Almere, The Netherlands). After overnight incubation at 37° C. the absorbance of the samples was measured at 550-525 nm using an Elisa reader (EL808x, Biotek instruments, Highland park, Vt., USA). Cytotoxicity was expressed as a relative viability of the rituximab-mediated CDC of lovastatin-treated cells compared to cells incubated with medium only and was calculated as follows: relative viability=[(Ae−Ab)/(Ac−Ab)]*100, where Ab is the background absorbance, Ae is experimental absorbance of the lysed cells and Ac is the absorbance of untreated cells. The viability was expressed as percentage survival in comparison to non-cholesterol depleted cells (control).
RAJI-CD20high cells were incubated with diluents (control) or a concentration range of either Fillipin III for 30 minutes or Berberine chloride for 24 hours. […] The cytotoxic effects were measured in a MTT assay. […] After overnight incubation at 37° C. the absorbance of the samples was measured at 550-525 nm using an Elisa reader (EL808x, Biotek instruments, Highland park, Vt., USA). […]

A further assay has as its system CD20 mRNA. As to the kind of experiment: CD20 mRNA level by RT-PCR in RAJI-CD20high cells. It is filed as cell-based, human. As to conditions: 10 μM, time course over 48 hours. On the procedure: To analyze whether lovastatin treatment would influence CD20 expression mRNA expression of the target was determined. RAJI-CD20high cells were incubated with either diluent (control) or 10 μM of lovastatin for different time periods (1-48 hours). Cells were washed twice with PBS, pelleted and treated with 1 ml of TRIzol Reagent (Invitrogen) to extract total RNA according to the manufacturer's protocol. RNA concentration was measured with Eppendorf Biophotometer (Eppendorf, Hamburg, Germany). The first strand cDNA synthesis containing 1 μg of total RNA was primed with oligo(dT) using Omniscript RT Kit (Qiagen, Chatsworth, Calif.). Primers used for CD20 PCR amplification were: forward-5′ […]3′ and reverse-5′ […]3′. The cycling conditions in the Mastercycler personal (Eppendorf) consisted of a first step of 94° C. denaturation for 10 minutes, followed by 35 cycles of annealing at 54° C. for 60 sec, extension at 75° C. for 90 sec, and denaturation at 94° C. for 30 sec, with a final elongation step at 75° C. for 10 minutes using HotStart Taq DNA Polymerase (Qiagen). Amplification products were analyzed by 1.5% agarose gel electrophoresis.

A further assay deals with CD20 protein. As to the kind of experiment: Total cellular CD20 protein level by Western blotting in RAJI-CD20high cells. To be noted: 5-30 μM, 48 hours. Type of assay: cell-based, human. As for the experimental part: Control cells or cells incubated with 10 μM lovastatin for 48 hours, washed twice with PBS, were pelleted and lysed with radioimmunoprecipitation assay (RIPA) buffer containing Tris base 50 mM, NaCl 150 mM, NP-40 1%, sodium deoxycholate 0.25% and EDTA 1 mM supplemented with Complete® protease inhibitor cocktail tablets (Roche Diagnostics, Mannheim, Germany). Protein concentration was measured using Bio-Rad Protein Assay (BioRad, Hercules, Calif., USA). Equal amounts of whole cell proteins were separated on 12.5% SDS-polyacrylamide gel, transferred onto Protran® nitrocellulose membranes (Schleicher and Schuell BioScience Inc., Keene, N.H.), blocked with TBST (Tris buffered saline (pH 7.4) and 0.05% Tween 20) supplemented with 5% nonfat milk and 5% FBS. The following mAb (at 1:1000 dilution) were used for the overnight incubation: anti-CD20 (NCL-CD20-L26, Novocastra Laboratories Ltd, UK), anti-ICAM-1 (Santa Cruz, Santa Cruz, Calif.). After extensive washing with TBST, the membranes were incubated for 45 minutes with peroxidase conjugated ImmunoPure Goat Anti-Mouse IgG [F(ab′)2] (Jackson ImmunoResearch Laboratories Inc, Pa.). The chemiluminescence reaction for horseradish peroxidase was developed using SuperSignal WestPico Trail Kit® (Pierce, Rockford, Ill.) on a standard x-ray film. […]
(Immunoblotting shows a protein as a band on a membrane.)

Assay [1] deals with CD20 in the plasma membrane. As to the kind of experiment: CD20 localization in RAJI-CD20high cells (immunofluorescence, surface biotinylation). It is filed as cell-based, human.
Experimental: To examine localization of CD20 in RAJI-CD20high cells a double immunofluorescence staining with anti-CD20 mAb directed against an extracellular conformational epitope of CD20, and, after cell permeabilization, with a mAb against a linear epitope in the cytosolic tail of this molecule was performed. Control and lovastatin-pretreated RAJI-CD20high cells were stained in suspension at a density of 5×10^5/ml with FITC-conjugated B9E9 (1:10 in PBS, Immunotech Coulter Company, France) for 30 minutes at room temperature. After washing in PBS (three times), 200 μl of the cell suspension was spun onto a Cytospin slide. The slides were air-dried, acetone-fixed for 15 minutes at room temperature, washed three times with PBS, incubated with anti-CD20 mAb (Novocastra) (1:100 in PBS with 5% normal donkey serum (Jackson)) for 60 minutes at room temperature. The slides were washed three times in PBS and incubated with donkey anti-mouse Alexa555 conjugated antibody (Molecular Probes, CA) (1:200 for 30 minutes at room temperature). The slides were washed, mounted in Vectashield (Vector Laboratories, CA.) and examined by fluorescence microscopy (Leica TCS SP2). […] After five washes, gel-bound complexes were boiled in 2× Laemmli sample buffer and analyzed for CD20 by Western blotting using anti-CD20 mAb (NCL-CD20-L26, Novocastra) as described in Example 8.
The subject of assay [2] is cell surface proteins on RAJI cells. As to the kind of experiment: FACS binding of mAbs to cell surface proteins on RAJI cells. It is filed as cell-based, human. As to conditions: 10 μM lovastatin. On the procedure:
B cells (either non-treated cells, cholesterol-depleted cells via MβCD or lovastatin, or cholesterol-reconstituted cells) were characterized for quantitative surface expression of the B cell markers CD19, CD20, and CD21, the T-cell marker CD3, complement regulatory proteins CD55 and CD59, and HLA-DR and CD81 by direct immunofluorescence. […] After washing twice with FACS buffer (PBS, 0.1% Bovine Serum Albumine, 0.02% Sodium Azide), the cells were analyzed on a flow cytometer.

Assay [3] is described as follows: Cholesterol blood level of hypercholesterolemic patients treated with atorvastatin. It is filed as in vivo, human. As to conditions: day 3 vs day 0, single dose 80 mg, five patients. As for the experimental part:
Further, the influence of cholesterol depletion in freshly isolated B cells of hypercholesterolemic patients treated with atorvastatin was studied. A small exploratory clinical trial was performed in which hypercholesterolemic patients (n=5) were treated with a single dose of 80 mg atorvastatin (taken in the evening) in order to reduce their cholesterol blood level and determine the effect on CD20 mAb binding on isolated B cells using flow cytometry. Approval of the study was obtained from the ethics review board of the Warsaw University Medical Center. Informed consent was provided according to the Declaration of Helsinki. […]
The cholesterol blood level was measured using automated dry chemistry system (Vitroz 250 System Chemistry (Ortho-Clinical Diagnostics, Johnson&Johnson, Piscataway, N.J.). A starting cholesterol blood level of […] was required for patients to enroll in the clinical trial. At time of recruitment, patient I.D.#4 presented with a cholesterol blood concentration […], and as such was considered hypercholesterolemic. At time of recruitment the blood cholesterol level of patient I.D.#5 turned out to be below this cut off value, and thus it can be argued whether this patient should be considered hypercholesterolemic. […] Cholesterol blood levels were subsequently measured on day 0 (pretreatment) and day 3 after treatment. […]

Turning to `CC[C@H](C)C(=O)O[C@H]1C[C@@H](C)C=C2C=C[C@H](C)[C@H](CC[C@@H]3C[C@@H](O)CC(=O)O3)[C@H]21` [lovastatin], in the assay on RAJI-CD20high cells, the “protection from rituximab-induced CDC (cell viability)” value is reported as “concentration-dependent protection”. Besides, in the assay with CD20 mRNA, the “mRNA level for CD20” value was “remained constant”. For the same molecule, in the assay on CD20 protein, the “total cellular CD20 protein level” value is “did not influence”. Also, the “binding of mAb directed to the extracellular epitope of CD20” value in assay [1] (48-hour pre-treatment, confocal immunofluorescence) was “nearly completely abrogated binding”. The “CD20 detectable among biotinylated surface proteins” value in assay [1] (treated cells compared with controls) is listed as “comparable amounts”. For the same molecule, in assay [2], the “decrease of mAb binding of CD21” value was “not”; the “mAb binding of CD19 and CD20” value is “clearly decreased”.

With `CC(C)c1c(C(=O)Nc2ccccc2)c(-c2ccccc2)c(-c2ccc(F)cc2)n1CC[C@@H](O)C[C@@H](O)CC(=O)O` [atorvastatin], in assay [3], the “reduction of average cholesterol blood concentration” value was determined as 17%.
